Broadly, the IC50 is the concentration that inhibits the measured activity by half. A higher IC50 goes with a need for much substance.

For data set [1] the following is noted: cited from earlier work.
For data set [2], the system named is TNF-α. Briefly: RT-PCR mRNA expression of hub target TNF-α after LPS. In kind it is cell-based, murine. The following applies: after LPS stimulation. The method, then:
(§1) Expressions of targets were measured by RT-PCR. After treatment, total RNA was collected from the esophagus. Reverse transcription was conducted to obtain the cDNA. The RT-PCR amplification was performed using SYBRTM Green Master Mix with primers. The primer sequences were listed as follows: m-TNF-α: F-[…] (SEQ ID NO: 3); R-[…] (SEQ ID NO: 4). m-Bcl2: F-[…] (SEQ ID NO: 5); R-[…] (SEQ ID NO: 6). m-IL1B: F-[…] (SEQ ID NO: 7); R-[…] TGTGTG (SEQ ID NO: 8). m-PPARG: F-[…] (SEQ ID NO: 9); R-[…] (SEQ ID NO: 10).

Data set [3] relates to TNF-α. Briefly: TNF-α production by LPS-stimulated RAW 264.7 cells (ELISA). The class given is cell-based, murine. The method, then: (§2) Human U266 myeloma cells were cultured in complete media containing RPMI-1640 medium with 10% fetal bovine serum (FBS), 0.5% penicillin-streptomycin, 1×10^−5 mol/L of 0-mercaptoethanol, and 1 mmol/L of sodium pyruvate at 37° C. in an incubator with 5% CO2. U266 cells were cultured at initial 2×10^5 cell/mL with SZT-I or active compounds at different concentration. Then the supernatants were collected after 6 days. The level of IgE was. measured by an enzyme-linked immunosorbent assay (ELISA) kit according to the manufacturer's instructions. RAW 264.7 murine macrophages (5×10^5 cell/mL) were cultured in DMEM medium supplemented with 10% FBS, and 0.5% penicillin-streptomycin at 37° C. under 5% CO2. SZT-I or active compounds at different concentrations and LPS (0.5 μg/mL) added to cells. Supernatants were harvested after 24 h and analyzed by ELISA for TNF-α (Mabtech, In vitro studies-Cell viability Inc, Cincinnati, Ohio). Eotaxin inhibitory assays were conducted by using human fetal lung fibroblast (HFL-1) cells. HFL-1 (CCL-153) cells were grown in F-12K medium (ATCC, Rockville, MD) containing 10% fetal bovine serum (Gibco BRL, Grand Island, NY) and 1% penicillin-streptomycin (BD Bio, San Jose, CA). […] Eotaxin levels were determined by using ELISA (R&D Systems) according to the directions of the manufacturer.

Data set [4] has as its system Raw 264.7 cells. Briefly: Raw 264.7 cytotoxicity (MTT assay). In kind it is cell-based, murine. The following applies: luteolin concentrations tested. The method, then: (§3) Cell viability of U266 was measured by trypan blue exclusion (Yang, Patil, et al., 2013). Cell suspension (10 uL) was mixed with trypan blue dye (10 uL), and viable cells and total cells counted with a hemocytometer. The cell viability was calculated using the equation: cell viability=(total number of viable cells)/(total number of cells). The viability of Raw 264.7 was evaluated using the MTT assay carried out as previously described (Liu, C. et al., 2015, Phytother Res, 29(6), 925-932). Cells were seeded into a 96-well plate at 2×10^4 cells/well, then different concentrations of SZT-I or active compounds were added to the plate. After 24 h, 50 μL MTT (2.0 mg/mL) was added to wells and the plate was incubated for a further 3 h. The supernatant was discarded, and the generated formazan was dissolved in dimethyl sulfoxide (DMSO) (200 μL). The absorbance of wells was detected at 590 nm.

For data set [5], the system named is U266 cells. Briefly: U266 cell viability (trypan blue exclusion). The class given is cell-based, Human. To be noted: at the concentrations reducing IgE. On the procedure:
as §3

In data set [6] the test system is PPARG. Briefly: RT-PCR mRNA expression of hub target PPARG after LPS. The class given is cell-based, murine. To be noted: inhibited by LPS. On the procedure: as §1
The test system of data set [7] is IgE. Briefly: IgE production by U266 myeloma cells (ELISA). The class given is cell-based, Human. On the procedure: as §2
In general terms: ELISA stands for enzyme-linked immunosorbent assay.

In data set [8] the test system is Bcl2. Briefly: RT-PCR mRNA expression of hub target Bcl2 after LPS. In kind it is cell-based, murine. The following applies: Raw cells. The method, then:
as §1

Data set [9] has as its system IL1B. Briefly: RT-PCR mRNA expression of hub target IL1B after LPS. The class given is cell-based, murine. To be noted: after LPS stimulation. On the procedure: as §1

Values after ≈ are worked out from the molar mass of the structure shown. Read-outs that look alike come from different tables or passages of the source.

`COc1cc2oc3c4c(O)cc(O)cc4oc(=O)c3c2cc1OC` [1,3-dihydroxy-8,9-dimethoxy-6-benzofurano[3,2-c]chromenone]: in data set [1] (TCMSP database, Table 1), the “O.B. (oral bioavailability)” value is 62.9.
In the case of `COc1cc(O)cc2c1[C@@H]1Oc3c(ccc(O)c3CC=C(C)C)[C@@H]1CO2` [1-Methoxyphaseol-lidin], the “O.B. (oral bioavailability)” value in [1] (TCMSP database, Table 1) is reported as 69.98.
As for `CC(C)=CCc1c(O)cc(O)c2c(=O)c(-c3ccc(O)c(O)c3)coc12` [3-(3,4-dihydroxyphenyl)-5,7-dihydroxy-8-(3-methylbut-2-enyl)chromone], the “O.B. (oral bioavailability)” value in [1] (TCMSP database, Table 1) was 66.37.
Turning to `CCCCC/C=C/C/C=C/CCCCCCCCCC(=O)O` [11,14-eicosadienoic acid], the “O.B. (oral bioavailability)” value in [1] (TCMSP database, Table 1) is given as 39.99.
`O=C1C[C@H](c2ccc(O)cc2)Oc2cc(O)ccc21` [(2R)-7-hydroxy-2-(4-hydroxyphenyl) chroman-4-one]: in [1] (TCMSP database, Table 1), the “O.B. (oral bioavailability)” value was 71.12.
As to `C=C(C)[C@@H]1CC[C@]2(C(=O)O)CC[C@]3(C)[C@H](CC[C@@H]4[C@@]5(C)CC[C@H](O)C(C)(C)[C@@H]5CC[C@]43C)[C@@H]12` [Betulinic acid], the “O.B. (oral bioavailability)” value in data set [1] (TCMSP database, Table 1) was 55.38.
Take `COc1cc(-c2cc(=O)c3c(O)cc(O)cc3o2)ccc1O` [Chryseriol]: in data set [1] (TCMSP database, Table 1), the “O.B. (oral bioavailability)” value is reported as 35.85.
For the compound `Oc1cc(O)c2c(c1)O[C@H](c1ccc(O)c(O)c1)[C@@H](O)C2` [Cianidanol], the “O.B. (oral bioavailability)” value in data set [1] (TCMSP database, Table 1) was 36.91.
Take `CC/C=C/C/C=C/C/C=C/CCCCCCCC(=O)OCC` [Ethyl linolenate]: in data set [1] (TCMSP database, Table 1), the “O.B. (oral bioavailability)” value is recorded as 46.1.
With `CCCCCCCC/C=C\CCCCCCCC(=O)OCC` [Ethyl oleate], the “O.B. (oral bioavailability)” value in data set [1] (TCMSP database, Table 1) is on record as 32.4.
As to `COc1ccc(-c2coc3cc(O)ccc3c2=O)cc1` [Formononetin], the “O.B. (oral bioavailability)” value in data set [1] (TCMSP database, Table 1) was 69.67.
Regarding `CC1(C)C=Cc2c(ccc3c2OC[C@@H](c2ccc(O)cc2O)C3)O1` [Glabridin], the “O.B. (oral bioavailability)” value in data set [1] (TCMSP database, Table 1) is given as 53.25.
Consider `CC1(C)C=Cc2c(ccc(-c3coc4cc(O)ccc4c3=O)c2O)O1` [Glabrone], for which the “O.B. (oral bioavailability)” value in data set [1] (TCMSP database, Table 1) is on record as 52.51.
Consider `COc1c(CC=C(C)C)c(O)cc2oc(=O)c3c4ccc(O)cc4oc3c12` [Glycyrol], for which, in data set [1] (TCMSP database, Table 1), the “O.B. (oral bioavailability)” value is recorded as 90.78.
`COc1ccc(C(=O)/C=C/c2ccc(O)cc2OC)cc1` [Glypallichalcone]: the “O.B. (oral bioavailability)” value in data set [1] (TCMSP database, Table 1) was 61.6.
Take `O=C1/C(=C2\Nc3ccccc3C2=O)Nc2ccccc21` [Indigo]: the “O.B. (oral bioavailability)” value in [1] (TCMSP database, Table 1) is recorded as 38.2.
On to `O=c1c(O)c(-c2ccc(O)cc2)oc2cc(O)cc(O)c12` [Kaempferol], for which, in data set [1] (TCMSP database, Table 1), the “O.B. (oral bioavailability)” value is given as 41.88.
On to `CC1(C)C=Cc2c(ccc3cc(-c4ccc(O)cc4O)c(=O)oc23)O1` [Kanzonols W], for which the “O.B. (oral bioavailability)” value in data set [1] (TCMSP database, Table 1) is recorded as 50.48.
Regarding `COc1c(/C=C/C(=O)c2ccc(O)cc2)ccc(O)c1O` [Licochalcone B], in data set [1] (TCMSP database, Table 1), the “O.B. (oral bioavailability)” value is reported as 76.76.
As for `CC(C)=CCc1c(O)cc(O)c2c(=O)c(-c3ccc(O)cc3)coc12` [Lupiwighteone], the “O.B. (oral bioavailability)” value in data set [1] (TCMSP database, Table 1) was 51.64.
For the compound `O=c1cc(-c2ccc(O)c(O)c2)oc2cc(O)cc(O)c12` [Luteolin], in data set [2], the “mRNA expression of TNF-α” value is reported as “reversed”. In addition, the “OB (oral bioavailability)” value in data set [1] (TCMSP database) is listed as 36.16%. In addition, the IC50 in [3] (Mus musculus, RAW264.7, Raw 264.7 cells, LPS 0.5 μg/mL, 24 h) is 5.61 µg/mL (≈ 19.6 µM); in [7] (Homo sapiens, U-266, 144 h, 6 days), around 4.81 µg/mL (≈ 16.8 µM). Besides, in data set [3] (Raw 264.7 cells stimulated by LPS, 20 μg/mL), the “production of TNF-α compared with quercetin and kaempferol” value is on record as “significantly inhibited”. Further, the “cell toxicity on Raw 264.7” value in data set [4] is on record as “no significant cell toxicity”. Also, in [5], the “cytotoxicity on U266” value is “without cytotoxicity”. In addition, the “mRNA expression of PPARG” value in [6] was “upregulated”. Further, in [7] (10 μg/mL), the “production of IgE” value is on record as “strongly diminished”. Further, the “mRNA expression of Bcl2” value in [8] is “increased the expression of Bcl2 significantly”. In data set [9], the “mRNA expression of IL1B” value is given as “reversed”.
Consider `CCCCC/C=C\C/C=C\CCCCCCCC(=O)OCC` [Mandenol], for which the “O.B. (oral bioavailability)” value in [1] (TCMSP database, Table 1) is listed as 42.
Consider `C=C(CC[C@@H](C(=O)O)[C@H]1[C@H](O)C[C@@]2(C)C3=C(CC[C@]12C)[C@@]1(C)CC[C@H](OC(C)=O)C(C)(C)[C@@H]1CC3)C(C)C` [Pachymic acid], for which the “O.B. (oral bioavailability)” value in data set [1] (TCMSP database, Table 1) was 33.63.
`O=c1c(O)c(-c2ccc(O)c(O)c2)oc2cc(O)cc(O)c12` [Quercetin]: the “O.B. (oral bioavailability)” value in data set [1] (TCMSP database, Table 1) is on record as 46.43.
On to `CC(C)=CC[C@H](O)C1=CC(=O)c2c(O)ccc(O)c2C1=O` [Shikonin], for which the “O.B. (oral bioavailability)” value in [1] (TCMSP database, Table 1) was 64.79.
As for `CCC(/C=C/[C@H](C)[C@@H]1CC[C@@H]2[C@@H]3CC=C4C[C@@H](O)CC[C@]4(C)[C@@H]3CC[C@@]21C)C(C)C` (stereo partly shown) [ZINC03978781], the “O.B. (oral bioavailability)” value in data set [1] (TCMSP database, Table 1) is 43.83.
Regarding `CN1CCc2cc3c(cc2[C@H]1[C@H]1OC(=O)c2c1ccc1c2OCO1)OCO3` [bicuculline], the “O.B. (oral bioavailability)” value in data set [1] (TCMSP database, Table 1) is 69.67.
Regarding `CC(C)=CCc1c(O)cc2c(c1O)C=C(c1ccc(O)cc1O)CO2` [dehydroglyasperins C], in [1] (TCMSP database, Table 1), the “O.B. (oral bioavailability)” value is recorded as 53.82.
As for `O=C1C[C@@H](c2ccc(O[C@@H]3O[C@H](CO)[C@@H](O)[C@H](O)[C@H]3O)cc2)Oc2cc(O)ccc21` [liquiritin], the “O.B. (oral bioavailability)” value in data set [1] (TCMSP database, Table 1) was 65.69.
With `C[C@@]12C[C@@]3(O)O[C@H](O1)[C@@]1(COC(=O)c4ccccc4)[C@@H]3C[C@]12O[C@@H]1O[C@H](CO)[C@H](O)[C@H](O)[C@@H]1O` [paeoniflorin_qt], the “O.B. (oral bioavailability)” value in [1] (TCMSP database, Table 1) is recorded as 68.18.
With `COc1c(O)cc(O)c2c(=O)cc(-c3ccccc3)oc12` [wogonin], the “O.B. (oral bioavailability)” value in [1] (TCMSP database, Table 1) is recorded as 30.68.
With `CC1=C(/C=C/C(C)=C/C=C/C(C)=C/C=C/C=C(C)/C=C/C=C(C)/C=C/C2=C(C)CCCC2(C)C)C(C)(C)CCC1` [β-carotene], the “O.B. (oral bioavailability)” value in [1] (TCMSP database, Table 1) is given as 37.18.
As for Sitosterol, in data set [1] (TCMSP database, Table 1), the “O.B. (oral bioavailability)” value was 36.91. For the same compound, in [1] (TCMSP database), the “OB (oral bioavailability)” value is 36.91%.
Regarding Stigmasterol, in data set [1] (TCMSP database, Table 1), the “O.B. (oral bioavailability)” value is 43.83. The “OB (oral bioavailability)” value in data set [1] (TCMSP database) was 43.83%.
Consider β-amyrin acetate, for which, in data set [1] (po), the “O.B. (oral bioavailability)” value is 42.06.
For the compound β-sitosterol, in data set [1] (TCMSP database, Table 1), the “O.B. (oral bioavailability)” value was 36.91. The “OB (oral bioavailability)” value in data set [1] (TCMSP database) is recorded as 36.91%.

The record behind these values is patent publication US20230414560A1, “COMPOSITIONS AND METHODS FOR TREATING ECZEMA” (General Nutraceutical Technology LLC, priority 2022, published 2023).
